Laboratory results from patent US7579167B2, “Polypeptides involved in the biosynthesis of spiramycins, nucleotide sequences encoding these polypeptides and applications thereof” (Aventis Pharma S., priority 2002, dated 2009).

Columns and labels:
[1] = comparison with spiramycins II and III; cited from earlier work

Description for Micrococcus luteus: The strain of Micrococcus luteus used is a strain naturally sensitive to spiramycin but resistant to congocidine.

In the case of `CO[C@@H]1[C@@H](O[C@@H]2O[C@H](C)[C@@H](O[C@H]3C[C@@](C)(O)[C@@H](O)[C@H](C)O3)[C@H](N(C)C)[C@H]2O)[C@@H](CC=O)C[C@@H](C)[C@@H](O[C@H]2CC[C@H](N(C)C)[C@@H](C)O2)/C=C/C=C/C[C@@H](C)OC(=O)C[C@H]1O` [spiramycin I], the “antibiotic activity compared with spiramycins II and III” value [1] is listed as “clearly greater”.
For `CC1CC=CC=CC(OC2CCC(N(C)C)C(C)O2)C(C)CC(CC=O)C(OC2OC(C)C(OC3CC(C)(O)C(O)C(C)O3)C(N(C)C)C2O)C(O)C(O)CC(=O)O1` (stereo not drawn) [spiramycin without the methyl group], the “activity compared with the spiramycin of origin with the methyl group at position 4 (less active by a factor)” value (Micrococcus luteus; microbiological test on a sensitive strain of M. luteus) was 10 and the “microbiological activity compared with the unmodified spiramycin (weaker)” value (Micrococcus luteus; tested on the microorganism Micrococcus luteus, relative to unmodified spiramycin) was 10 fold.
